Experimental data reported in article PMC3222737 (Biochemistry, 2011).
“And” between values parts separate entries of the source, which are not always exact repeats. Equal values may be shown once. Read-outs that look alike come from different tables or passages of the source.

Legend:
[1] = molecular target: T1, MTAP (Homo sapiens, UniProt Q13126); test: Isothermal titration calorimetry of ligand binding to human MTAP; settings: for ΔG: calculated from Ki; for −TΔS: from ΔG=ΔH−TΔS
T1 sequence (Q13126 1-283): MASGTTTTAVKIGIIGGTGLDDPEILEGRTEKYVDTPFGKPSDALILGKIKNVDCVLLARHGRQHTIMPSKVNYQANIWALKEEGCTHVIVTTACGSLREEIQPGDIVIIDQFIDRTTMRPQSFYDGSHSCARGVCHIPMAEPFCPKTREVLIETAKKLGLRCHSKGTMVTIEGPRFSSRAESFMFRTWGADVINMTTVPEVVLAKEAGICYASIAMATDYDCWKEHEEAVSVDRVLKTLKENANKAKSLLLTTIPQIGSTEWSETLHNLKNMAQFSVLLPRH

[2] = molecular target: T1, MTAP; settings: cited from earlier work; for Ki: human MTAP
[3] = system: FaDu; settings: FaDu cells; cited from earlier work
[4] = system: Cal27; settings: Cal27 cells; cited from earlier work
[5] = system: FaDu tumors; settings: mouse model; cited from earlier work
[6] = system: human lung cancer cell lines; settings: mouse xenografts; cited from earlier work
[7] = in vivo; cited from earlier work
[8] = molecular target: T1, MTAP; test: Analytical ultracentrifugation sedimentation velocity of MTAP complexes; settings: for S(20,w) (normalized): MTAP 134 μM + inhibitor 400 μM, normalized for mass of bound ligands; for S(20,w) relative change: versus apo MTAP
[9] = second generation inhibitors, identical sites
[10] = second generation inhibitors, single set of identical sites
[11] = first generation inhibitors, major binding sites
[12] = first generation inhibitors, third site
[13] = first generation inhibitors, major binding sites (first two sites)

SMILES | ΔH [1, 9] [kJ/mol] | ΔG [1, 9] | −TΔS [1, 9] | n (number of sites) [1, 10] | S(20,w) (normalized) [8] | S(20,w) relative change [8] | Kd [2, 10] [nM] | n (number of sites) [1, 11] | ΔH [1, 11] | ΔG [1, 11] | −TΔS [1, 11] | n (number of sites) [1, 12] | ΔH [1, 12] [kJ/mol] | ΔG [1, 12] [kJ/mol] | −TΔS [1, 12] [kJ/mol] | Kd [2, 13] [nM] | also measured
Nc1ncnc2[nH]cnc12 [Adenine, reference compound] | – | – | – | – | – | – | – | – | – | – | – | – | – | – | – | – | Kd ([1]; Kd, adenine, 1st site, three sequential binding sites model, derived from ITC data fitting): 3000 ± 1000 nM; ΔH ([1]; adenine, 1st site): -0.013 ± 0.84 kJ/mol; n (number of sites) ([1]; adenine, 1st site, sequential model): 1; ΔG ([1]; adenine, 1st site): -31.8 ± 0.84 kJ/mol; −TΔS ([1]; adenine, 1st site): -31.8 ± 1.3 kJ/mol; ΔH ([1]; adenine, 2nd site): 10 ± 0.84 kJ/mol; n (number of sites) ([1]; adenine, 2nd site, sequential model): 1; ΔG ([1]; adenine, 2nd site): -32.2 ± 0.84 kJ/mol; −TΔS ([1]; adenine, 2nd site): -42.3 ± 1.3 kJ/mol; ΔH ([1]; adenine, 3rd site): -10.9 ± 3.3 kJ/mol; n (number of sites) ([1]; adenine, 3rd site, sequential model): 1; ΔG ([1]; adenine, 3rd site): -23.4 ± 2.1 kJ/mol; −TΔS ([1]; adenine, 3rd site): -12.6 ± 3.8 kJ/mol; Entropy (−TΔS) share of the binding energy ([1]; adenine, third site): 54%
CSCC1NC(c2c[nH]c3c(N)ncnc23)[C@@H](O)[C@H]1O (some centres unmarked) [MT-ImmA] | – | – | – | – | – | – | – | 2.42 ± 0.04 | 0.84 kJ/mol and 1 ± 0.17 kJ/mol | -51.5 kJ/mol and -51.5 ± 0.42 kJ/mol | -52.3 kJ/mol and -52.3 ± 0.42 kJ/mol | 0.58 ± 0.09 | 11.3 ± 1.7 | -35.1 ± 1.3 | -46.4 ± 2.1 | 1 ± 0.1 | Ki [2]: 1 nM
CCCSC[C@H]1N[C@@H](c2c[nH]c3c(N)ncnc23)[C@H](O)[C@@H]1O [nPrT-ImmA] | – | – | – | – | – | – | – | 2.13 ± 0.04 | 0.84 kJ/mol and 1 ± 0.13 kJ/mol | -55.2 kJ/mol and -55.2 ± 0.13 kJ/mol | -56.1 kJ/mol and -56.1 ± 0.42 kJ/mol | 0.9 ± 0.1 | 4.6 ± 0.84 | -34.3 ± 1.7 | -38.9 ± 1.7 | 0.214 ± 0.01 | –

The next lines start with results.

ΔH [1, 9] [kJ/mol] | ΔG [1, 9] | −TΔS [1, 9] | n (number of sites) [1, 10] | S(20,w) (normalized) [8] | S(20,w) relative change [8] | SMILES | Kd [2, 10] [nM] | n (number of sites) [1, 11] | ΔH [1, 11] | ΔG [1, 11] | −TΔS [1, 11] | n (number of sites) [1, 12] | ΔH [1, 12] [kJ/mol] | ΔG [1, 12] [kJ/mol] | −TΔS [1, 12] [kJ/mol] | Kd [2, 13] [nM] | also measured
6.28 ± 0.42 | -57.3 kJ/mol and -57.3 ± 0.42 kJ/mol | -63.6 kJ/mol and -63.6 ± 0.42 kJ/mol | 3 | 5.904 ± 0.016 | 0.79 ± 0.05% | CSC[C@H]1CN(Cc2c[nH]c3c(N)ncnc23)C[C@@H]1O [MT-DADMe-ImmA] | 0.09 ± 0.01 | – | – | – | – | – | – | – | – | – | Ki ([2]; read-out: Ki (dissociation constant by inhibition kinetics)): 0.09 nM; apoptosis [3]: induces apoptosis; apoptosis [4]: induces apoptosis; tumor growth [5]: prevents the growth of FaDu tumors; tumor growth and metastases [6]: inhibits the tumor growth and metastases; systemic toxicity [7]: low systemic toxicity
10.9 ± 0.42 | -62.8 kJ/mol and -62.8 ± 1.3 kJ/mol | -73.6 kJ/mol and -73.6 ± 1.3 kJ/mol | 3 | 6.012 ± 0.067 | 2.63% and 2.63 ± 0.12% | Nc1ncnc2c(CN3CC(CSc4ccc(Cl)cc4)[C@H](O)C3)c[nH]c12 (some centres unmarked) [p-Cl-PhT-DADMe-ImmA] | 0.01 ± 0.005 | – | – | – | – | – | – | – | – | – | –
